Data on 37 compounds can be found in ChEMBL document CHEMBL1149456, “Substituted 4-hydroxyphenyl sulfonamides as pathway-selective estrogen receptor ligands” (Bioorg Med Chem Lett, 2006).

The target in assay [1] is T1, Estrogen receptor (Homo sapiens, UniProt P03372).
T1 sequence (P03372 whole entry): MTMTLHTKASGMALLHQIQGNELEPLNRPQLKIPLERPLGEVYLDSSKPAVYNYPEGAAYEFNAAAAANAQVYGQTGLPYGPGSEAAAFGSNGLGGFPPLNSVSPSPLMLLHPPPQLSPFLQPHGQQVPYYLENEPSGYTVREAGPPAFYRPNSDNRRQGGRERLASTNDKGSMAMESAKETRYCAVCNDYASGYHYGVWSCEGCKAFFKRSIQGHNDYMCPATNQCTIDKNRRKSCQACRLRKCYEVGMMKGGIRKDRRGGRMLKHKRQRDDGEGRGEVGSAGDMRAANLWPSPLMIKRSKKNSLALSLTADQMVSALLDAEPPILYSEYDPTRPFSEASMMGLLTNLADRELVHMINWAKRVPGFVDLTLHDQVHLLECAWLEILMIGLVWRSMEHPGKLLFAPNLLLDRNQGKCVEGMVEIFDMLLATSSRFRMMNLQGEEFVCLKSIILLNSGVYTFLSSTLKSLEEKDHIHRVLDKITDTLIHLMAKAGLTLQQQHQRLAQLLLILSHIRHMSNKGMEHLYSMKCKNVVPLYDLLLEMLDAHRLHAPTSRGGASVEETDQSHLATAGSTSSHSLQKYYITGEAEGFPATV
The experiment in a line: Inhibition of binding to ER in Ad5-wt-ER-infected HAECT1 cells by NF-kappaB-mediated luciferase reporter. Type of assay: functional, cell-based. For orientation: Reporter assays use an easily measured gene product as a stand-in for the process of interest.

Assay [2] concerns the target T1, Estrogen receptor. The experiment in a line: Effect on binding to ER in Ad5-wt-ER-infected HAECT1 cells by creatine kinase expression. Type of assay: functional, cell-based.

Broadly, the IC50 is the concentration needed to halve the response being measured. Broadly, the EC50 is the concentration at which the effect is half-maximal. `CCN(c1ccccc1)S(=O)(=O)c1ccc(O)cc1`: the half-inhibitory concentration (IC50) on Estrogen receptor [1] (read-out: IC50) was 404 nM. The EC50 at Estrogen receptor [2] (read-out: EC50) is 1600 nM.

For `CCN(c1ccc(OC)cc1)S(=O)(=O)c1ccc(O)cc1`, on Estrogen receptor [1] (haect1), the IC50 entry is given as “Not Active”.

As to `CCCN(c1c(CC)cccc1CC)S(=O)(=O)c1ccc(O)c(C)c1`, the IC50 at Estrogen receptor [1] (read-out: IC50) came out at 5 nM. For the same compound, on Estrogen receptor [2] (read-out: EC50), the EC50 amounted to 213 nM.

Consider `CCCN(c1ccccc1Br)S(=O)(=O)c1ccc(O)c(C)c1`, for which the IC50 on Estrogen receptor [1] (read-out: IC50) stood at 40 nM. The EC50 on Estrogen receptor [2] (read-out: EC50) was found to be 480 nM.

On to `CCCN(c1c(C)cccc1Cl)S(=O)(=O)c1ccc(O)c(C)c1`, for which the IC50 at Estrogen receptor [1] (read-out: IC50) turned out to be 26 nM. For the same compound, on Estrogen receptor [2] (read-out: EC50), the EC50 turned out to be 153 nM.

Consider `CCCN(c1ccccc1Cl)S(=O)(=O)c1ccc(O)cc1`, for which the IC50 on Estrogen receptor [1] (read-out: IC50) was 42 nM. Besides, the EC50 at Estrogen receptor [2] (read-out: EC50) was found to be 144 nM.

On to `O=S(=O)(c1ccc(O)cc1)N(Cc1ccccc1)c1ccccc1`, for which, at Estrogen receptor [1] (read-out: IC50), the IC50 is 500 nM. At Estrogen receptor [2] (read-out: EC50), the EC50 was determined as 242 nM.

As for `CCCN(c1ccccc1Cl)S(=O)(=O)c1ccc(O)c(C)c1`, at Estrogen receptor [1] (read-out: IC50), the IC50 worked out at 51 nM. Further, the EC50 at Estrogen receptor [2] (read-out: EC50) was 650 nM.

Take `C=CCN(c1ccccc1)S(=O)(=O)c1ccc(O)cc1`: on Estrogen receptor [1] (read-out: IC50), the IC50 is 235 nM. Further, the EC50 on Estrogen receptor [2] (read-out: EC50) was 599 nM.

In the case of `CCCN(c1c(C)cccc1Cl)S(=O)(=O)c1ccc(O)cc1`, on Estrogen receptor [1] (read-out: IC50), the half-inhibitory concentration (IC50) is 24 nM. The EC50 at Estrogen receptor [2] (read-out: EC50) was found to be 63 nM.

Turning to `CN(c1ccccc1)S(=O)(=O)c1ccc(O)cc1`, the IC50 entry on Estrogen receptor [1] (haect1) is “Not Active”.

Take `CCN(c1ccccc1)S(=O)(=O)c1ccc(O)c(C)c1`: on Estrogen receptor [1] (read-out: IC50), the concentration for half-maximal inhibition (IC50) was 328 nM. Besides, at Estrogen receptor [2] (read-out: EC50), the 50% effective concentration (EC50) is 2140 nM.

Consider `O=S(=O)(c1ccc(O)cc1)N1CCCc2ccccc21`, for which, on Estrogen receptor [1] (haect1), the IC50 entry was “Not Active”.

`O=S(=O)(c1ccc(O)cc1)N(CCO)c1ccccc1`: the IC50 entry on Estrogen receptor [1] (haect1) was “Not Active”.

With `O=S(=O)(Nc1ccccc1)c1ccc(O)cc1`, the IC50 result at Estrogen receptor [1] (haect1) is “Not Active”.

Take `CCN(c1ccccc1)S(=O)(=O)c1ccc(O)c(OC)c1`: the IC50 result on Estrogen receptor [1] (haect1) was “Not Active”.

Consider `CCCN(c1ccccc1Br)S(=O)(=O)c1ccc(O)c(C(F)(F)F)c1`, for which the IC50 at Estrogen receptor [1] (read-out: IC50) stood at 60 nM. Also, the EC50 entry on Estrogen receptor [2] (haect1) is recorded as “Not Active”.

For `CC(C)(C)CN(c1ccccc1)S(=O)(=O)c1ccc(O)cc1`, the IC50 on Estrogen receptor [1] (read-out: IC50) was determined as 1370 nM. Further, on Estrogen receptor [2] (read-out: EC50), the EC50 is above 2500 nM.

Consider `CCCN(c1ccccc1)S(=O)(=O)c1ccc(O)cc1`, for which, on Estrogen receptor [1] (read-out: IC50), the half-inhibitory concentration (IC50) was determined as 303 nM. For the same compound, the EC50 at Estrogen receptor [2] (read-out: EC50) amounted to 1430 nM.

`CCCCN(c1ccccc1)S(=O)(=O)c1ccc(O)cc1`: at Estrogen receptor [1] (read-out: IC50), the IC50 is 317 nM. Further, on Estrogen receptor [2] (read-out: EC50), the EC50 came out at 705 nM.

With `CCCN(c1ccccc1F)S(=O)(=O)c1ccc(O)cc1`, the half-maximal inhibitory concentration (IC50) on Estrogen receptor [1] (read-out: IC50) is 74 nM. Moreover, the EC50 at Estrogen receptor [2] (read-out: EC50) is 161 nM.

In the case of `O=S(=O)(c1ccc(O)cc1)N(c1ccccc1)c1ccccc1`, the IC50 at Estrogen receptor [1] (read-out: IC50) stood at 410 nM. Further, the EC50 on Estrogen receptor [2] (read-out: EC50) was 1540 nM.

`CCCN(c1c(C)cccc1C)S(=O)(=O)c1ccc(O)c(C)c1`: at Estrogen receptor [1] (read-out: IC50), the IC50 was determined as 14 nM. For the same compound, at Estrogen receptor [2] (read-out: EC50), the EC50 was 75 nM.

Turning to `CCCN(c1ccccc1-c1ccccc1)S(=O)(=O)c1ccc(O)c(C)c1`, at Estrogen receptor [1] (read-out: IC50), the IC50 was determined as 253 nM. Besides, the half-maximal effective concentration (EC50) on Estrogen receptor [2] (read-out: EC50) is above 2890 nM.

`CCN(c1cccc(OC)c1)S(=O)(=O)c1ccc(O)cc1`: the IC50 on Estrogen receptor [1] (read-out: IC50) came out at 1970 nM. The EC50 on Estrogen receptor [2] (read-out: EC50) was 830 nM.

Turning to `CCCN(c1c(Cl)cccc1Cl)S(=O)(=O)c1ccc(O)c(C)c1`, the IC50 at Estrogen receptor [1] (read-out: IC50) turned out to be 16 nM. For the same compound, the EC50 at Estrogen receptor [2] (read-out: EC50) came out at 378 nM.

As to `CCCN(c1ccccc1C(F)(F)F)S(=O)(=O)c1ccc(O)cc1`, the IC50 on Estrogen receptor [1] (read-out: IC50) came to 54 nM. The EC50 at Estrogen receptor [2] (read-out: EC50) turned out to be 243 nM.

With `CCN(c1ccccc1Br)S(=O)(=O)c1ccc(O)cc1`, the IC50 at Estrogen receptor [1] (read-out: IC50) worked out at 90 nM. The EC50 at Estrogen receptor [2] (read-out: EC50) worked out at 378 nM.

As to `CCCN(c1ccccc1C)S(=O)(=O)c1ccc(O)c(C)c1`, the IC50 on Estrogen receptor [1] (read-out: IC50) was found to be 109 nM. On Estrogen receptor [2] (read-out: EC50), the 50% effective concentration (EC50) was 923 nM.

Take `CCCN(c1c(C)cccc1CC)S(=O)(=O)c1ccc(O)c(C)c1`: the IC50 on Estrogen receptor [1] (read-out: IC50) came out at 7 nM. Besides, at Estrogen receptor [2] (read-out: EC50), the EC50 turned out to be 12 nM.

Turning to `CC1CCc2ccccc2N1S(=O)(=O)c1ccc(O)cc1` (stereo not drawn), the IC50 on Estrogen receptor [1] (read-out: IC50) came to 479 nM. Further, the concentration giving a half-maximal response (EC50) on Estrogen receptor [2] (read-out: EC50) is above 1000 nM.

In the case of `CCCN(c1ccccc1Br)S(=O)(=O)c1ccc(O)cc1`, the IC50 at Estrogen receptor [1] (read-out: IC50) is 26 nM. Also, the EC50 at Estrogen receptor [2] (read-out: EC50) came to 151 nM.

Regarding `CCN(c1ccc(O)cc1)S(=O)(=O)c1ccc(O)cc1`, the IC50 on Estrogen receptor [1] (read-out: IC50) came out at 272 nM. Further, the EC50 at Estrogen receptor [2] (read-out: EC50) turned out to be 1390 nM.

On to `CCN(c1ccccc1OC)S(=O)(=O)c1ccc(O)cc1`, for which, on Estrogen receptor [1] (read-out: IC50), the IC50 amounted to 830 nM. The EC50 on Estrogen receptor [2] (read-out: EC50) was determined as 2170 nM.

As to `CC(C)N(c1ccccc1)S(=O)(=O)c1ccc(O)cc1`, the IC50 on Estrogen receptor [1] (read-out: IC50) turned out to be 871 nM. Also, the EC50 on Estrogen receptor [2] (read-out: EC50) stood at 1990 nM.

With `O=S(=O)(c1ccc(O)cc1)N(c1ccccc1)C1CCCCC1`, the IC50 on Estrogen receptor [1] (read-out: IC50) was determined as 866 nM. Moreover, on Estrogen receptor [2] (read-out: EC50), the concentration for a half-maximal effect (EC50) is 534 nM.

With `O=S1(=O)c2ccc(O)cc2CCN1c1ccccc1Cl`, the IC50 at Estrogen receptor [1] (read-out: IC50) amounted to 892 nM. For the same compound, on Estrogen receptor [2] (haect1), the EC50 entry is listed as “Not Active”.
